According to paper PMC4468408 (ACS Medicinal Chemistry Letters, 2015):
Read-outs that look alike come from different tables or passages of the source.

How the values were obtained:
[1] = Phase I; cited from earlier work
in vitro metabolism = type: in vitro ADME
P-gp = P-gp substrate test in transfected MDCK cells; type: in vitro ADME
[2] = brain total exposure in nude mice; details: for AUC brain (AUC0–8h) / brain Cmax: sodium salts PO 30 mg/kg
[3] = oral dosing of SD rats: exposure, GABAA related effects, toxicity; type: in vivo, SD rat; details: for effects attributable to GABAA binding (CNS effects): SD rats dosed orally; for toxicities observed at the maximum tolerated dose: SD rats, orally for seven consecutive days
[4] = pharmacokinetics in Sprague-Dawley rat; type: in vivo; details: IV 1 mg/kg, 10% 2-HP-β-CD
major human CYP isozymes = test: CYP inhibition; type: in vitro ADME
human tumor xenografts = details: cited from earlier work
[5] = stability in human S9 fraction; type: in vitro ADME

stability in human S9 fraction [5]	SMILES	incidence of somnolence [1]	in vitro metabolism (in vitro metabolism)	substrate of P-gp (P-gp)	AUC brain (AUC0–8h) [2]	brain Cmax [2]	effects attributable to GABAA binding (CNS effects) [3]	toxicities observed at the maximum tolerated dose [3]	CL [4]	IC50 (major human CYP isozymes; human)	tumor growth inhibition (human tumor xenografts; multiple human tumor xenograft models)	brain AUC reduction ([2]; compared with MLN8054)	CYP inhibition (major human CYP isozymes; concentrations up to 100 μM)	tumor growth inhibition (human tumor xenografts; multiple xenograft efficacy models in immunocompromised mice)
	COc1cc(Nc2ncc3c(n2)-c2ccc(Cl)cc2C(c2c(F)cccc2OC)=NC3)ccc1C(=O)O [alisertib (10)]	not dose limiting	low and is mediated through multiple CYP isoforms and UGTs	not a substrate of P-gp	2.0 µg·h/mL	0.42 µg/mL	No effects attributable to GABAA binding were observed	myelosuppression and mucositis	10.4 mL min^–1 kg^–1	> 100 µM	significant tumor growth inhibition			
stable in human S9 fraction	O=C(O)c1ccc(Nc2ncc3c(n2)-c2ccc(Cl)cc2C(c2ccccc2F)=NC3)cc1 [compound 7]													
	COc1cccc(F)c1C1=NCc2cnc(Nc3ccc(C(=O)O)cc3)nc2-c2ccc(Cl)cc21 [compound 9]				3.5 µg·h/mL	0.93 µg/mL	No effects attributable to GABAA binding were observed					3 fold		
	O=C(O)c1ccc(Nc2ncc3c(n2)-c2ccc(Cl)cc2C(c2c(F)cccc2F)=NC3)cc1 [MLN8054 (8)]		predominantly through CYP1A2 and 3A4	not a substrate of P-gp	12.5 µg·h/mL	2.6 µg/mL	reversible central nervous system (CNS) effects	myelosuppression and mucositis					no CYP inhibition is observed	Significant tumor growth inhibition, with no overt toxicity
